Data published in patent US6620826B2, “Endothelin receptor antagonists” (SmithKline Beecham Corporation, priority 1994, dated 2003).

| Structure (SMILES) | melting point [°C] |
| --- | --- |
| CCCCc1ncc(/C=C(\Cc2cc3c(cc2OC)OCO3)C(=O)O)n1-c1ccc(OC)cc1OCc1nnnn1CC [Example 23, (E)-3-[2-Butyl-1-[2-(1-ethyl-1H-tetrazol-5-yl)methoxy-4-methoxyphenyl]-1H-imidazol-5-yl]-2-[(2-methoxy-4,5-methylenedioxyphenyl)methyl]-2-propenoic Acid] | 185 to 190 |
| CCCCc1ncc(/C=C(\Cc2cc3c(cc2OC)OCO3)C(=O)O)n1-c1ccc(OC)cc1OCc1nnn(CCC)n1 [Example 24, (E)-3-[2-Butyl-1-[2-(2-propyl-2H-tetrazol-5-yl)methoxy-4-methoxyphenyl]-1H-imidazol-5-yl]-2-[(2-methoxy-4,5-methylenedioxyphenyl)methyl]-2-propenoic Acid] | 110 to 118 |
